Measured values taken from US4738954A, “Novel N^6 -substituted-5'-oxidized adenosine analogs” (Warner-Lambert Company, priority 1985, dated 1988).
Values belong to the molecule of their own block, whether it stands above or below them.

Key:
[1] = system: mean arterial blood pressure and heart rate in the conscious rat; test: Antihypertensive evaluation (AHP3): aortic blood pressure and heart rate from conscious rats; assay type: in vivo
Source text: ANTIHYPERTENSIVE EVALUATION (AHP3)
This test procedure is described in the following paragraphs.
A Method for the Direct Monitoring of Aortic Blood Pressure and Heart Rate from Conscious Rats
The continous monitoring of pulsatile blood pressure (BP) from unrestrained conscious rats surgically equipped with polyethylene cannulas was accomplished by means of a computer assisted data capture scheme (CADCS). The basic elements of the methodology are the cannulation procedure and the CADCS.
Rats were anesthetized with Telazol (1:1 tiletamine HCl and zolazepam HCl); 20-40 mg/kg IM and the descending aorta exposed via a midline incision. Cannulas fabricated from polyethylene tubing were inserted into the aorta via an undersized puncture hole below the renal arteries. The puncture hole was made by a 23 G disposable needle with a section of the aorta clamped off above and below the puncture site. The cannulas, consisting of a PE100 (0.86 mm ID) body and a PE50 (0.58 mm ID) tip, were attached to a trocar, inserted through the psoas muscle, and passed subcutaneously along the midline of the back and externalized between the ears. The cannulas were anchored to the psoas muscle and between the scalulae (3-0 green braided suture). The midline incision was closed in two steps (muscle first, skin second) using contiuous over-and over sutures (4-0 chronic). Each rat was then given penicillin 30,000 units subcutaneously (Penicilling G Procaine Sterile Suspension).
The rats were fitted with a harness-spring-swivel assembly designed to protect the cannula and to provide the rat relative freedom of movement. The harnesses were fabricated from nylon hook and loop tape cemented to a metal plate to which spring wires (18-8 stainless steel) were attached to brass swivels. Each polyethylene cannula was channeled through a spring and connected through a swivel to a pressure transducer (Model P23Gb; Statham Instruments; Hato Rey, Puerto Rico) and an infusion pump (Sage model 234-7; Orion Research, Cambridge, MA) by means of PE100 tubing. While on test, each rat received a continuous slow infusion of heparinized saline solution (approximately […] or 40 units of heparin per 24 hours period) to prevent clot formation. Additional "flushes" of the cannula with heparinized saline were carried out when the aortic pluse pressure (systolic minus diastolic) was less than 25 mm Hg.
The pulsatile blood pressure and heart rate of each of 32 rats was monitored every minute by means of two in-laboratory microcomputers communicating directly with a data concentrator computer. The data were first stored on the data concentrator disk and then transferred to a magnetic tape for analysis and report generation by the main research computer. […]

[2] = system: platelets (collagen-induced aggregation); test: Antithrombocyte aggregation test in vitro (ATA-8), collagen-induced, whole blood; assay type: cell-based, human (Community Research Clinic volunteers); conditions: Homo sapiens, Platelet
Procedure: (§1) ANTITHROMBOCYTE AGGREGATION TEST-IN VITRO (ATA-8)
Blood is collected from Community Research Clinic volunteers who have not ingested aspirin or other non-steroidol antiinflammatory drugs within the preceeding two weeks and have not eaten within the nine hours before blood draw. Blood is taken in 4.5 ml portions in Vacutainer No. 6462S silicone-coated tubes or equivalent containing 0.5 ml of 3.8% trisodium citrate. Usually six or eight portions of 4.5 ml are drawn from each volunteer. The blood collected from three or four volunteers is pooled prior to centrifugation. […]
Addition of drug solution or saline (0.02 ml) is followed in 5 min by addition of aggregating agent (ADP or collagen suspension, 0.02 ml). Extent of aggregation, using ADP stimulus, or rate of aggregation, using collagen stimulus, is determined using the Payton Scientific Dual Channel Aggregation Module, Model 300B. Appropriate concentrations of ADP or collagen are determined by an initial brief titration.
The major slope (that is, the slope of the first straight line portion) of the collagen-induced aggregation curve for each drug concentration is determined and compared to the slope of the curve for control aggregations. Values for drug test aggregations are expressed as "precent of control" and are plotted versus drug concentration on semilog paper. […]

[3] = system: platelets (collagen-induced aggregation); test: Antithrombocyte aggregation test in vitro (ATA-8), collagen-induced, platelet rich plasma; assay type: cell-based, human (Community Research Clinic volunteers); conditions: Homo sapiens
Procedure: as §1
Source and Preparation of Platelet Suspensions
Blood is collected from Community Research Clinic volunteers who have not ingested aspirin or other non-steroidol antiinflammatory drugs within the preceeding two weeks and have not eaten within the nine hours before blood draw. Blood is taken in 4.5 ml portions in Vacutainer No. 6462S silicone-coated tubes or equivalent containing 0.5 ml of 3.8% trisodium citrate. Usually six or eight portions of 4.5 ml are drawn from each volunteer. The blood collected from three or four volunteers is pooled prior to centrifugation. […] The platelet count of the PRP is determined with a Coulter Thromobocounter. […]
Platelet-rich plasma adjusted to 250,000 platelets per microliter is distributed in 0.36 ml aliquots into silicone-coated cuvettes of 0.312 inch diameter. […] Extent of aggregation, using ADP stimulus, or rate of aggregation, using collagen stimulus, is determined using the Payton Scientific Dual Channel Aggregation Module, Model 300B. Appropriate concentrations of ADP or collagen are determined by an initial brief titration. […]
The major slope (that is, the slope of the first straight line portion) of the collagen-induced aggregation curve for each drug concentration is determined and compared to the slope of the curve for control aggregations. […]

Structure (SMILES): CCOC(=O)[C@H]1O[C@@H](n2cnc3c(NC4CC5CCC4C5)ncnc32)[C@H](O)[C@@H]1O (relative stereo) [Example 8, N-6-Norbornyl-adenosine-5'ethylcarboxylate]
MAP (mean arterial pressure) change ([1]; 10 mg/kg, hour 3, conscious rat): 0%

IC50 [2]: 50 nM
IC50 [3]: 200 nM
Structure (SMILES): CCNC(=O)[C@H]1O[C@@H](n2cnc3c(N[C@H](C)Cc4ccccc4)ncnc32)[C@H](O)[C@@H]1O [Example 1, (R)-N-6-[(2-phenyl-1-methyl)ethyl]-adenosine-5'-ethylcarboxamide]

Structure (SMILES): CCNC(=O)[C@H]1O[C@@H](n2cnc3c(NCC(c4ccccc4)c4ccccc4)ncnc32)[C@H](O)[C@@H]1O [Example 3, N^6-(2,2-diphenylethyl)-adenosine-5'-ethylcarboxamide]
HR (heart rate) change ([1]; 1 mg/kg, hour 5, conscious rat): 0%
MAP (mean arterial pressure) change ([1]; 1 mg/kg, hour 5, conscious rat): 0%

Structure (SMILES): CCOC(=O)[C@H]1O[C@@H](n2cnc3c(NCC(c4ccccc4)c4ccccc4)ncnc32)[C@H](O)[C@@H]1O [Example 5, N6-(2,2-diphenylethyl)-5-adenosine-5'-ethylcarboxylate]
MAP (mean arterial pressure) change ([1]; 10 mg/kg, hour 5, conscious rat): 0%
